In US10519211B2, “Compounds as peptidic GLP1/glucagon/GIP receptor agonists” (SANOFI, priority 2016, dated 2019):
Numbered stars: 1 amine (or outer) side, 2 acyl side, 3 side chain; on linkers, the order of the positions; unused ones are H or OH. Square brackets hold non-standard residues; d marks the D form. Side chains are listed from the residue outwards. Peptide text beside a SMILES is read from it. * marks the point of attachment. γGlu = O=C(O)[C@H](CCC(=O)[*:2])N[*:1]; Palmitoyl = CCCCCCCCCCCCCCCC(=O)*; Aib = CC(C)(N)C(=O)O

Target: T1, human GIP receptor (hGIP-R) (Homo sapiens, UniProt P48546)
T1 construct: expressed in transfected cells; host or cells: HEK-293
T1 sequence (P48546 22-466): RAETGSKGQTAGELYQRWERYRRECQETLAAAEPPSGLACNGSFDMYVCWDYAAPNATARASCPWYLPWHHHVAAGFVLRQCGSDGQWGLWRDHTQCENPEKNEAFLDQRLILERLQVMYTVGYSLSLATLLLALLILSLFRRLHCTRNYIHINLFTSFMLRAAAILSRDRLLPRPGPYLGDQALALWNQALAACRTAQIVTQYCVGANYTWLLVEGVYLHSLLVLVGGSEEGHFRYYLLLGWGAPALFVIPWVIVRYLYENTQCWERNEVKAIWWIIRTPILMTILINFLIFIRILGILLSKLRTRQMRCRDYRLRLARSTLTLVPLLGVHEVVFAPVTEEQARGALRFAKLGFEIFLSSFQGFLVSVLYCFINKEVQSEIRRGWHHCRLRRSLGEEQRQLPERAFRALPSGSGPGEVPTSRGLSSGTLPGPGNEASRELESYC
Assay: cAMP response (HTRF) of HEK-293 cells stably expressing human GIP receptor
Assay type: cell-based
Settings: Table 8; cAMP formation
Description: cAMP content of cells was determined using a kit from Cisbio Corp. (cat. no. 62AM4PEJ) based on HTRF (Homogenous Time Resolved Fluorescence). For preparation, cells were split into T175 culture flasks and grown overnight to near confluency in medium (DMEM/10% FBS). Medium was then removed and cells washed with PBS lacking calcium and magnesium, followed by proteinase treatment with accutase (Sigma-Aldrich cat. no. A6964). Detached cells were washed and resuspended in assay buffer (1×HBSS; 20 mM HEPES, 0.1% BSA, 2 mM IBMX) and cellular density determined. They were then diluted to 400000 cells/ml and 25 μl-aliquots dispensed into the wells of 96-well plates. For measurement, 25 μl of test compound in assay buffer was added to the wells, followed by incubation for 30 minutes at room temperature.
Potencies of peptidic compounds at the GLP-1, glucagon and GIP receptors were determined by exposing cells expressing human glucagon receptor (hGlucagon R), human GIP receptor (hGIP-R) or human GLP-1 receptor (hGLP-1 R) to the listed compounds at increasing concentrations and measuring the formed cAMP as described in Methods.

| Compound | EC50 |
| --- | --- |
| CCCCCCCCCCCCCCCC(=O)N[C@@H](CCC(=O)N[C@@H](CCC(=O)NCCCC[C@H](NC(=O)[C@H](CC(C)C)NC(=O)[C@H](CCCCN)NC(=O)[C@H](CO)NC(=O)[C@H](CC(C)C)NC(=O)[C@H](CC(=O)O)NC(=O)[C@H](CO)NC(=O)[C@@H](NC(=O)[C@H](Cc1ccccc1)NC(=O)[C@@H](NC(=O)CNC(=O)[C@H](CCC(N)=O)NC(=O)C(C)(C)NC(=O)[C@@H](N)Cc1c[nH]cn1)[C@@H](C)O)[C@@H](C)O)C(=O)N[C@@H](CCC(=O)O)C(=O)N[C@@H](CCCCN)C(=O)N[C@@H](CCC(N)=O)C(=O)N[C@@H](CCCNC(=N)N)C(=O)N[C@@H](CCC(N)=O)C(=O)NC(C)(C)C(=O)N[C@@H](CCC(=O)O)C(=O)N[C@@H](Cc1ccccc1)C(=O)N[C@H](C(=O)N[C@@H](CCC(=O)O)C(=O)N[C@@H](Cc1c[nH]c2ccccc12)C(=O)N[C@@H](CC(C)C)C(=O)N[C@@H](CCCCN)C(=O)N[C@@H](C)C(=O)NCC(=O)NCC(=O)N1CCC[C@H]1C(=O)N1CCC[C@H]1C(=O)N[C@@H](CO)C(=O)NC(C)(C)C(=O)N[C@@H](CCCCN)C(=O)N1CCC[C@H]1C(=O)N1CCC[C@H]1C(=O)N1CCC[C@H]1C(=O)N[C@@H](CCCCN)C(N)=O)[C@@H](C)CC)C(=O)O)C(=O)O [SEQ ID NO: 6, H-Aib-Q-G-T-F-T-S-D-L-S-K-L-K[gGlu-gGlu-Palm]-E-K-Q-R-Q-Aib-E-F-I-E-W-L-K-A-G-G-P-P-S-Aib-K-P-P-P-K-NH2] | 7.9 pM |
| CCCCCCCCCCCCCCCC(=O)N[C@@H](CCC(=O)N[C@@H](CCC(=O)NCCCC[C@H](NC(=O)[C@H](CC(C)C)NC(=O)[C@H](CCCCN)NC(=O)[C@H](CO)NC(=O)[C@H](CC(C)C)NC(=O)[C@H](CC(=O)O)NC(=O)[C@H](CO)NC(=O)[C@@H](NC(=O)[C@H](Cc1ccccc1)NC(=O)[C@@H](NC(=O)CNC(=O)[C@H](CCC(N)=O)NC(=O)C(C)(C)NC(=O)[C@@H](N)Cc1c[nH]cn1)[C@@H](C)O)[C@@H](C)O)C(=O)N[C@@H](CCC(=O)O)C(=O)N[C@@H](CCC(=O)O)C(=O)N[C@@H](CCC(N)=O)C(=O)N[C@@H](CCCNC(=N)N)C(=O)N[C@@H](CCC(N)=O)C(=O)NC(C)(C)C(=O)N[C@@H](CCC(=O)O)C(=O)N[C@@H](Cc1ccccc1)C(=O)N[C@H](C(=O)N[C@@H](CCC(=O)O)C(=O)N[C@@H](Cc1c[nH]c2ccccc12)C(=O)N[C@@H](CC(C)C)C(=O)N[C@@H](CCCCN)C(=O)N[C@@H](C)C(=O)NCC(=O)NCC(=O)N1CCC[C@H]1C(=O)N1CCC[C@H]1C(=O)N[C@@H](CO)C(=O)NC(C)(C)C(=O)N[C@@H](CCCCN)C(=O)N1CCC[C@H]1C(=O)N1CCC[C@H]1C(=O)N1CCC[C@H]1C(=O)N[C@@H](CCCCN)C(N)=O)[C@@H](C)CC)C(=O)O)C(=O)O [SEQ ID NO: 9, H-Aib-Q-G-T-F-T-S-D-L-S-K-L-K[gGlu-gGlu-Palm]-E-E-Q-R-Q-Aib-E-F-I-E-W-L-K-A-G-G-P-P-S-Aib-K-P-P-P-K-NH2] | 5.6 pM |

System: not listed separately
Assay: Solubility assessment (UPLC-UV)
Assay type: physicochemical
Settings: acetate buffer pH 4.5, 2.7 mg/ml m-cresol (buffer system A), target 10 mg/ml
Method in brief: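 Peptides at 10 mg/mL (purity-corrected, by UPLC/MS) in 100 mM acetate buffer pH 4.5 with 2.7 mg/ml m-Cresol, gently agitated 1 hour, then centrifuged 15 min at 2500 RCF. Supernatant, diluted 1:10, quantified by UPLC-UV peak area against a reference peptide standard curve, extinction-coefficient corrected.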

| Compound | solubility at 1 h |
| --- | --- |
| CCCCCCCCCCCCCCCC(=O)N[C@@H](CCC(=O)N[C@@H](CCC(=O)NCCCC[C@H](NC(=O)[C@H](CC(C)C)NC(=O)[C@H](CCCCN)NC(=O)[C@H](CO)NC(=O)[C@H](CC(C)C)NC(=O)[C@H](CC(=O)O)NC(=O)[C@H](CO)NC(=O)[C@@H](NC(=O)[C@H](Cc1ccccc1)NC(=O)[C@@H](NC(=O)CNC(=O)[C@H](CCC(N)=O)NC(=O)C(C)(C)NC(=O)[C@@H](N)Cc1c[nH]cn1)[C@@H](C)O)[C@@H](C)O)C(=O)N[C@@H](CCC(=O)O)C(=O)N[C@@H](CCCCN)C(=O)N[C@@H](CCC(N)=O)C(=O)N[C@@H](CCCNC(=N)N)C(=O)N[C@@H](CCC(N)=O)C(=O)NC(C)(C)C(=O)N[C@@H](CCC(=O)O)C(=O)N[C@@H](Cc1ccccc1)C(=O)N[C@H](C(=O)N[C@@H](CCC(=O)O)C(=O)N[C@@H](Cc1c[nH]c2ccccc12)C(=O)N[C@@H](CC(C)C)C(=O)N[C@@H](CCCCN)C(=O)N[C@@H](C)C(=O)NCC(=O)NCC(=O)N1CCC[C@H]1C(=O)N1CCC[C@H]1C(=O)N[C@@H](CO)C(=O)NC(C)(C)C(=O)N[C@@H](CCCCN)C(=O)N1CCC[C@H]1C(=O)N1CCC[C@H]1C(=O)N1CCC[C@H]1C(=O)N[C@@H](CCCCN)C(N)=O)[C@@H](C)CC)C(=O)O)C(=O)O [SEQ ID NO: 6, H-Aib-Q-G-T-F-T-S-D-L-S-K-L-K[gGlu-gGlu-Palm]-E-K-Q-R-Q-Aib-E-F-I-E-W-L-K-A-G-G-P-P-S-Aib-K-P-P-P-K-NH2] | > 9600 µg/mL |
| CCCCCCCCCCCCCCCC(=O)N[C@@H](CCC(=O)N[C@@H](CCC(=O)NCCCC[C@H](NC(=O)[C@H](CC(C)C)NC(=O)[C@H](CCCCN)NC(=O)[C@H](CO)NC(=O)[C@H](CC(C)C)NC(=O)[C@H](CC(=O)O)NC(=O)[C@H](CO)NC(=O)[C@@H](NC(=O)[C@H](Cc1ccccc1)NC(=O)[C@@H](NC(=O)CNC(=O)[C@H](CCC(N)=O)NC(=O)C(C)(C)NC(=O)[C@@H](N)Cc1c[nH]cn1)[C@@H](C)O)[C@@H](C)O)C(=O)N[C@@H](CCC(=O)O)C(=O)N[C@@H](CCCCN)C(=O)N[C@@H](CCC(N)=O)C(=O)N[C@@H](CCCNC(=N)N)C(=O)N[C@@H](CCC(N)=O)C(=O)NC(C)(C)C(=O)N[C@@H](CCC(=O)O)C(=O)N[C@@H](Cc1ccccc1)C(=O)N[C@H](C(=O)N[C@@H](CCC(=O)O)C(=O)N[C@@H](Cc1c[nH]c2ccccc12)C(=O)N[C@@H](CC(C)C)C(=O)N[C@@H](CCCCN)C(=O)N[C@@H](C)C(=O)N[C@H](C)C(=O)NCC(=O)N1CCC[C@H]1C(=O)N1CCC[C@H]1C(=O)N[C@@H](CO)C(=O)NC(C)(C)C(=O)N[C@@H](CCCCN)C(=O)N1CCC[C@H]1C(=O)N1CCC[C@H]1C(=O)N1CCC[C@H]1C(=O)N[C@@H](CCCCN)C(N)=O)[C@@H](C)CC)C(=O)O)C(=O)O [SEQ ID NO: 7, H-Aib-Q-G-T-F-T-S-D-L-S-K-L-K[gGlu-gGlu-Palm]-E-K-Q-R-Q-Aib-E-F-I-E-W-L-K-A-dAla-G-P-P-S-Aib-K-P-P-P-K-NH2] (H-H[Aib]QGTFTSDLSKLK([γGlu-γGlu-Palmitoyl])EKQRQ[Aib]EFIEWLKA[dA]GPPS[Aib]KPPPK-NH2) | > 9900 µg/mL |
| CCCCCCCCCCCCCCCC(=O)N[C@@H](CCC(=O)N[C@@H](CCC(=O)NCCCC[C@H](NC(=O)[C@H](CC(C)C)NC(=O)[C@H](CCCCN)NC(=O)[C@H](CO)NC(=O)[C@H](CC(C)C)NC(=O)[C@H](CC(=O)O)NC(=O)[C@H](CO)NC(=O)[C@@H](NC(=O)[C@H](Cc1ccccc1)NC(=O)[C@@H](NC(=O)CNC(=O)[C@H](CCC(N)=O)NC(=O)C(C)(C)NC(=O)[C@@H](N)Cc1c[nH]cn1)[C@@H](C)O)[C@@H](C)O)C(=O)N[C@@H](CCC(=O)O)C(=O)N[C@@H](CCC(=O)O)C(=O)N[C@@H](CCC(N)=O)C(=O)N[C@@H](CCCNC(=N)N)C(=O)N[C@@H](CCC(N)=O)C(=O)NC(C)(C)C(=O)N[C@@H](CCC(=O)O)C(=O)N[C@@H](Cc1ccccc1)C(=O)N[C@H](C(=O)N[C@@H](CCC(=O)O)C(=O)N[C@@H](Cc1c[nH]c2ccccc12)C(=O)N[C@@H](CC(C)C)C(=O)N[C@@H](CCCCN)C(=O)N[C@@H](C)C(=O)N[C@H](C)C(=O)NCC(=O)N1CCC[C@H]1C(=O)N1CCC[C@H]1C(=O)N[C@@H](CO)C(=O)NC(C)(C)C(=O)N[C@@H](CCCCN)C(=O)N1CCC[C@H]1C(=O)N1CCC[C@H]1C(=O)N1CCC[C@H]1C(=O)N[C@@H](CCCCN)C(N)=O)[C@@H](C)CC)C(=O)O)C(=O)O [SEQ ID NO: 10, H-Aib-Q-G-T-F-T-S-D-L-S-K-L-K[gGlu-gGlu-Palm]-E-E-Q-R-Q-Aib-E-F-I-E-W-L-K-A-dAla-G-P-P-S-Aib-K-P-P-P-K-NH2] (H-H[Aib]QGTFTSDLSKLK([γGlu-γGlu-Palmitoyl])EEQRQ[Aib]EFIEWLKA[dA]GPPS[Aib]KPPPK-NH2) | > 10100 µg/mL |
| CCCCCCCCCCCCCCCC(=O)N[C@@H](CCC(=O)N[C@@H](CCC(=O)NCCCC[C@H](NC(=O)[C@H](CC(C)C)NC(=O)[C@H](CCCCN)NC(=O)[C@H](CO)NC(=O)[C@H](CC(C)C)NC(=O)[C@H](CC(=O)O)NC(=O)[C@H](CO)NC(=O)[C@@H](NC(=O)[C@H](Cc1ccccc1)NC(=O)[C@@H](NC(=O)CNC(=O)[C@H](CCC(N)=O)NC(=O)C(C)(C)NC(=O)[C@@H](N)Cc1c[nH]cn1)[C@@H](C)O)[C@@H](C)O)C(=O)N[C@@H](CCC(=O)O)C(=O)N[C@@H](CCCCN)C(=O)N[C@@H](CCC(N)=O)C(=O)N[C@@H](CCCNC(=N)N)C(=O)N[C@@H](CCC(N)=O)C(=O)NC(C)(C)C(=O)N[C@@H](CCC(=O)O)C(=O)N[C@@H](Cc1ccccc1)C(=O)N[C@H](C(=O)N[C@@H](CCC(=O)O)C(=O)N[C@@H](Cc1c[nH]c2ccccc12)C(=O)N[C@@H](CC(C)C)C(=O)N[C@@H](CCCCN)C(=O)N[C@@H](C)C(=O)N[C@H](C)C(=O)NCC(=O)N[C@@H](Cc1c[nH]cn1)C(=O)N1CCC[C@H]1C(=O)N[C@@H](CO)C(=O)NC(C)(C)C(=O)N[C@@H](CCCCN)C(=O)N1CCC[C@H]1C(=O)N1CCC[C@H]1C(=O)N1CCC[C@H]1C(=O)N[C@@H](CCCCN)C(N)=O)[C@@H](C)CC)C(=O)O)C(=O)O [SEQ ID NO: 13, H-Aib-Q-G-T-F-T-S-D-L-S-K-L-K[gGlu-gGlu-Palm]-E-K-Q-R-Q-Aib-E-F-I-E-W-L-K-A-dAla-G-H-P-S-Aib-K-P-P-P-K-NH2] (H-H[Aib]QGTFTSDLSKLK([γGlu-γGlu-Palmitoyl])EKQRQ[Aib]EFIEWLKA[dA]GHPS[Aib]KPPPK-NH2) | > 9300 µg/mL |
